In patent US9586974B2, “Cyclic N-acyl O-amino phenol CBI derivative” (THE SCRIPPS RESEARCH LINSTITUTE, priority 2013, dated 2017):
“And” between values parts separate entries of the source, which are not always exact repeats. Equal values may be shown once. Read-outs that look alike come from different tables or passages of the source.

Key:
[1] = tested on: L1210 murine leukemia cells; test: In vivo antitumor activity, L1210 implanted ip in B6D2F1 mice; set-up: species or system mouse
Description: [Wolfe et al., J. Med. Chem. 2012, 55:5878-5886.] Therefore, the preliminary evaluation of the in vivo antitumor activity of the cyclic N—O pro-drugs was assessed with Compound (+)-6 and was conducted alongside seco-CBI-indole2 (Compound 4) in an antitumor model consisting of L1210 murine leukemia cells implanted ip in B6D2F1 mice traditionally used to initially compare new duocarmycin derivatives (Table 3, below).
B6D2F1 mice were injected intraperitoneally (i.p.) with syngeneic L1210 cells (1×10^6) on day 0. Ten mice were randomly assigned to control vehicle or treatment groups for Compounds (+)-4 and (+)-6 at doses of 60, 100, 250, and 500 μg/kg/inj for Compounds (+)-4 or 60, 200, 500, 1000, and 2500 μg/kg/inj for Compounds (+)-6. Compounds (+)-4 and (+)-6 were formulated in 100% DMSO. Both compounds were injected i.p. on days 1, 5, and 9. Following injection of tumor cells, animals were monitored daily and weighed two times per week. Percent survival (T/C) for treated and control groups were determined by dividing the total survival days for each treatment group by the total survival days for the control group and multiplying×100. All animal studies were carried out in the animal facilities of The University of Kansas Medical Center with strict adherence to the guidelines of the IACUC Animal Welfare Committee of KUMC (IACUC approval #2009-1837).

[2] = tested on: L1210 (ATCC CCL-219) mouse lymphocytic leukemia cells; test: Cell growth inhibition assay (phosphatase readout); type: cell-based
Description: Compounds were tested for their cell growth inhibition of L1210 (ATCC CCL-219) mouse lymphocytic leukemia cells. A population of cells (>1×10^6 cells/mL as determined with a hemocytometer) was diluted with an appropriate amount of Dulbecco-modified Eagle Medium (DMEM, Gibco) containing 10% fetal bovine serum (FBS, Gibco) to a final concentration of 30,000 cells/mL. To each well of a 96-well plate (Corning® Costar®), 100 μL of the cell-media solution was added with a multichannel pipette. The cultures were incubated at 37° C. in an atmosphere of 5% CO2 and 95% humidified air for 24 hours. The test compounds were added to the plate as follows: test substances were diluted in DMSO to a concentration of 1 mM and 10-fold serial dilutions were performed on a separate 96-well plate. Fresh culture medium (100 μL) was added to each well of cells to constitute 200 μL of medium per well followed by 2 μL of each test agent. Compounds were tested in duplicate (≧2 times) at six concentrations between 0-100 nM or 0-1000 nM. Following addition, cultures were incubated for an additional 72 hours.
A phosphatase assay was used to establish the IC50 values as follows: the media in each cell was removed and 100 μL of phosphatase solution (100 mg phosphatase substrate in 30 mL 0.1 M NaOAc, pH 5.5, 0.1% Triton® X-100 buffer) was added to each well. The plates were incubated at 37° C. for 5 minutes. After the given incubation time, 50 μL of 0.1 N NaOH was added to each well and the absorption at 405 nm was determined using a 96 well plate reader. As the absorption is directly proportional to the number of living cells, the IC50 values were calculated and the reported values represent of the average of ≧4 determinations (SD±10%).

[3] = Stability in human plasma; type: in vitro ADME
Description: Reagents and solvents were purchased reagent-grade and used without further purification. Pooled human plasma, with sodium citrate as an anticoagulant, was purchased from Innovative Research and stored at −20° C. THF was freshly distilled from sodium benzophenone ketyl. All reactions were performed in oven-dried glassware under an Ar atmosphere. Evaporation and concentration in vacuo was performed at 20° C. TLC was conducted using precoated SiO2 60 F254 glass plates from EMD with visualization by UV light (254 or 366 nm). Chiral phase HPLC was performed using a Shimadzu HPLC on a semi-preparative Diacel ChiralCel OD column (0.46 cm×25 cm) with a flow rate of 7 mL/min and with UV detection at λ=254 nm. Optical rotations were determined on a Rudolf Research Analytical Autopol III Automatic Polarimeter (λ=589 nm, 25° C.).

[4] = Stability in acidic media
[5] = Cleavage under reductive conditions; type: physicochemical; conditions: H2, Pd/C, MeOH, 23° C., 1 hour or Mo(CO)6, MeCN/H2O, reflux, 3 hours
Text: The greater stability of Compound 12 versus Compound 15 toward nucleophilic cleavage of the N—O bond can be attributed to the increased steric hindrance of the tertiary versus secondary nitrogen consistent with prior observations. [Lajiness et al., J. Med. Chem. 2010, 53:7731-7738]

[6] = not given; remark: listed apart in the source
[7] = tested on: L1210 murine leukemia cells; conditions: literature dose range; cited from earlier work
[8] = 60 μg/kg i.p. on days 1, 5 and 9
[9] = 200 μg/kg i.p. on days 1, 5 and 9
[10] = 500 μg/kg i.p. on days 1, 5 and 9
[11] = 1000 μg/kg i.p. on days 1, 5 and 9
[12] = 2500 μg/kg i.p. on days 1, 5 and 9
[13] = Mus musculus, L1210, 72 h, read-out: IC50 L1210 unnatural, unnatural enantiomer, 72 hours

In the case of CN1Oc2cc3c(c4cccc(c24)C1=O)[C@H](CCl)CN3C(=O)c1cc2cc(NC(=O)c3cc4ccccc4[nH]3)ccc2[nH]1 [Compound 6, N-(2-(10-(Chloromethyl)-5-methyl-4-oxo-5,8,9,10-tetrahydro-4H-pyrrolo[3′,2′:5,6]naphtho[1,8-de][1,2]oxazine-8-carbonyl)-1H-indol-5-yl)-1H-indole-2-carboxamide], the “MSP (Mean Survival Period)” value [1, 8] is reported as 28 days, the “Surviving Mice (live animals after 366 days)” value (“Surviving Mice” below) [1, 8] is reported as 0/10 and the “T/C = Treated/Control (MSP) × 100” value [1, 8] is reported as 159. The “MSP (Mean Survival Period)” value [1, 9] was >68 days, the “Surviving Mice” value [1, 9] was 1/10 and the “T/C = Treated/Control (MSP) × 100” value [1, 9] was >386. For the same compound, the “MSP (Mean Survival Period)” value [1, 10] was >201 days, the “Surviving Mice” value [1, 10] was 4/10 and the “T/C = Treated/Control (MSP) × 100” value [1, 10] was >1142. For the same compound, the “MSP (Mean Survival Period)” value [1, 11] was >199 days, the “Surviving Mice” value [1, 11] was 4/10 and the “T/C = Treated/Control (MSP) × 100” value [1, 11] was >1130. The “MSP (Mean Survival Period)” value [1, 12] was >264 days, the “Surviving Mice” value [1, 12] was 6/10 and the “T/C = Treated/Control (MSP) × 100” value [1, 12] was >1500. For the same compound, the IC50 [2, 13] was 0.74 µM, the IC50 ([2]; read-out: IC50 L1210 natural, natural enantiomer, 72 hours) was 0.00099 µM and the “t1/2 in pH 7.0 phosphate buffer” value was > 4 weeks. For the same compound, the “t1/2 in human plasma” value [3] was > 1 week, the “half-life in acidic media” value ([4]; 1:1 TFA/CH2Cl2, 23° C.) was 30 h and the “half-life (t1/2) in acidic media” value ([4]; 4 N HCl/EtOAc, 23° C. (12, 15: after initial Boc deprotection)) was > 72 h. For the same compound, the “cleavage under reductive conditions” value [5] was “rapidly cleaved”.

For O=C(Nc1ccc2[nH]c(C(=O)N3C[C@@H](CCl)c4c3cc3c5c(cccc45)C(=O)NO3)cc2c1)c1cc2ccccc2[nH]1 [Compound 7, N-(2-(10-(Chloromethyl)-4-oxo-5,8,9,10-tetrahydro-4H-pyrrolo[3′,2′:5,6]naphtho[1,8-de][1,2]oxazine-8-carbonyl)-1H-indol-5-yl)-1H-indole-2-carboxamide], the IC50 [2, 13] was 0.065 µM, the IC50 ([2]; Mus musculus, L1210, natural enantiomer, 72 hours, read-out: IC50 L1210 natural) was 0.0003 µM and the “t1/2 in pH 7.0 phosphate buffer” value was 1 week. The “t1/2 in human plasma” value [3] was 4 days and the “free drug in mouse plasma” value [6] was < 5%.

For O=C(Nc1ccc2[nH]c(C(=O)N3C[C@@H](CCl)c4c3cc(O)c3ccccc43)cc2c1)c1cc2ccccc2[nH]1 [Compound (+)-4, seco-CBI-indole2, reference compound], the “Surviving Mice” value [1, 8] was 1/10, the “T/C = Treated/Control (MSP) × 100” value [1, 8] was > 284 and 284 and the “toxicity in tumor-bearing mice” value ([1]; all higher doses (100-500 μg/kg)) was “proved toxic leading to premature death of the animals due to drug toxicity”. The “toxicity in tumor-bearing mice” value ([1]; dosing at 60 to 500 μg/kg) was “premature death” and the “therapeutic window (dose range)” value [7] was 0.03 to 0.1 mg/kg.
